Converted amounts (≈) assume the structure as drawn.

The subject of one data set is cancer cells. Put plainly: In vitro cytotoxicity on various cancer cells (MTT assay), summary. In kind it is cell-based. To be noted: as indicated in Table 1. On the procedure:
(§1) The effect of a preparation containing xanthocillin X dimethylether on cancer cells was determined by an in vitro test. For a medium, the Modified Dulbecco Minimum Essential Medium combined with 10% fetal serum was placed in a culture dish. The cytotoxic activity was observed on various cancer cells (set forth in Table 1 below) that were serially cultured in this medium in a CO2 incubator. First, the respective cancer cells were suspended in the aforementioned culture medium at a concentration of 5×10^4 cells/ml. Then 135 μl of the suspension was added to a micro-titer plate having 96 wells. Next, 15 μl of the test compound solution was added, and the plates were incubated in CO2 for 3 days. The survival of the cells after the incubation period was determined by the MTT assay (Igaku no Ayumi, Vol. 128, pages 733-735, 1984).
A general note: Formazan colour is commonly taken as a measure of viable cells.

In the next data set the test system is Meth-A. Put plainly: In vitro cytotoxicity, MTT assay, Meth-A. The format is cell-based, murine. To be noted: Mus musculus, 72 h, 3 days incubation, read-out: IC50 (drug concentration to kill 50% of the cells). The protocol:
as §1

A further data set has as its system P388. The data set is described as follows: In vitro cytotoxicity, MTT assay, P388. In kind it is cell-based. To be noted: Mus musculus, 72 h, 3 days incubation, read-out: IC50 (drug concentration to kill 50% of the cells). The protocol: as §1
The test system of data set [1] is Lewis carcinoma of the lung. The data set is described as follows: In vitro cytotoxicity, MTT assay, Lewis carcinoma of the lung. In kind it is cell-based. To be noted: 72 h, 3 days incubation, read-out: IC50 (drug concentration to kill 50% of the cells). On the procedure: as §1
The next data set relates to B16. The data set is described as follows: In vitro cytotoxicity, MTT assay, B16. To be noted: Mus musculus, 72 h, 3 days incubation, read-out: IC50 (drug concentration to kill 50% of the cells). The format is cell-based. The protocol: as §1
Another data set relates to prostaglandin synthesis. To be noted: literature; cited from earlier work.
Data set [2] can be described thus: Acute toxicity in Balb/c mice. To be noted: mouse, in vivo, ip, injected into the peritoneal cavity, 7-week-old females, survival over 2 weeks, suspension in 1% CMC. The protocol:
Xanthocillin X dimethylether (by way of the same suspension as used in Example 3) was injected into the peritoneal cavity of Balb/c mice (7-week-old females). The animals were reared for the next 2 weeks and their survival was recorded.

For the next data set, the system named is Meth-A solid tumor. The data set is described as follows: Suppression of growth of Meth-A solid tumor in Balb/c mice. The format is in vivo. On the procedure: 0.1 ml of 10^7 cells/ml of murine fibrosarcoma Meth-A (ascites) were inoculated subcutaneously into Balb/c mice (6-week-old, females) and the test agent was injected intraperitoneally into the mice on the next day.
The test compound had been thoroughly pulverized in a mortar, suspended in 1% carboxymethylcellulose (CMC), and mixed well using ultrasonic. The test compound was administered once daily for 4 consecutive days. Following 2 weeks of rearing, the tumor on the back was excised and its weight was recorded. The percentage by which tumor development was suppressed was computed as follows: {(tumor weight of the control-tumor weight of the test group)/tumor weight of the control group}×100.

The LD50 is the dose at which mortality reaches 50%. A higher LD50 goes with a less toxic substance. For the compound `[C-]#[N+]C(=Cc1ccc(OC)cc1)C(=Cc1ccc(OC)cc1)[N+]#[C-]` [xanthocillin X dimethylether], the “cytotoxicity to a series of cancer cells (in words)” value in the data set with cancer cells is given as “cytotoxic to a series of cancer cells”. Besides, the IC50 was 0.71 µg/mL (≈ 2.24 µM) with Meth-A, 0.67 µg/mL (≈ 2.12 µM) with P388, 0.46 µg/mL (≈ 1.45 µM) in data set [1] and 0.45 µg/mL (≈ 1.42 µM) with B16. The “inhibition of prostaglandin synthesis (in words)” value in the data set on prostaglandin synthesis is listed as “specific inhibitor of prostaglandin synthesis”. This compound also registered a 50% lethal dose (LD50) at 336 h in data set [2] greater than 120 mg/kg. Further, the “Percentage suppression of tumor growth” value in the data set with Meth-A solid tumor (30 mg/kg/day intraperitoneally, once daily for 4 consecutive days, after 2 weeks, computed from tumor weights versus control (1% CMC)) is given as 88.5 Percentage. For the same compound, in the data set with Meth-A solid tumor (30 mg/kg/day intraperitoneally, once daily for 4 consecutive days, tumor excised after 2 weeks, mean ± standard deviation, control 0.96 ± 0.60 g), the Tumor weight was 0.11 ± 0.10 g. Also, the “suppression of growth of Meth-A solid tumors (in words)” value in the data set on Meth-A solid tumor (as shown in Table 2) is listed as “markedly suppressed the growth of Meth-A solid tumors”.

Source of the values: patent US5312833A, “Method of inhibiting tumor growth using xanthocillin X dimethylether” (Meiji Seika Kaisha, Ltd., priority 1990, dated 1994).
